Tested on: human basophilic leukemia cell line KU812
Assay: Histamine release suppression test using human basophilic leukemia cell line KU812
Format: cell-based
Details: KU812 cells, final concentration 0.01%, CRA-1 15 μg/ml stimulation, N=4
Experimental: Histamine Release Suppression Test Using Human Basophilic Leukemia Cell Line KU812
A human basophilic leukemia cell line KU812 was grown in a RPMI 1640 medium (GIBCO) supplemented with 10% fetal bovine serum (treated at 56° C. for 30 min), at 37° C. in 5% CO2. The medium was washed by addition of a histamine release buffer (IMMUNOTECH) followed by centrifugation (1500 rpm, 5 min, 4° C.) and removal of the supernatant. The washing procedure was carried out twice. Then, a histamine release buffer was added to prepare a cell suspension having a cell density of 10^5 cells/ml. […] After centrifugation (2000 rpm, 10 min, 4° C.), the histamine content of the supernatant was measured using a Histamine EIA Kit (IMMUNOTECH) (N=4). Then, the mean and standard deviation of the measured values were obtained from the calibration curve, and the histamine release suppression rate (%) was calculated according to the following equation: [formula] wherein: • A represents the histamine content (n M) released from cells treated with the test substance/reference substance and CRA-1; • B represents the histamine content (n M) released from untreated cells; and • C represents the histamine content (n M) released from cells treated with CRA-1 only.

SMILES: CNC[C@H](O)c1ccc(O)c(O)c1 [epinephrine]
- histamine release suppression rate: 52±16%
